Measurements taken from patent US12187663B2, “Thyromimetics with a biphenylmethane scaffold and their use” (INTERNATIONAL SOCIETY FOR DRUG DEVELOPMENT S.R.L., priority 2019, dated 2025).

Key:
AMPK = assay: Western blot of phosphorylated AMPK in HepG2 cells; assay type: cell-based, Human; conditions: twenty-four hours of treatment, dose dependent
Description: (§1) Human hepatocellular carcinoma cells (HepG2), obtained from American Type Culture Collection (Manassas, Va., USA), were cultured in low-glucose (LG) Dulbecco's modified Eagle's medium (DMEM) ([…], Invitrogen, Carlsbad, Calif., USA) or high-glucose (HG) DMEM ([…]) supplemented with 10% fetal bovine serum (FBS) and […] penicillin/streptomycin in an atmosphere of 5% CO2 at 37° C. These cells were then treated with tested compounds at various concentrations for 24 h. After treatments, cells were lysed in a buffer containing 20 mM Tris-HCl (pH 7.5), 0.9% NaCl, 0.2% Triton X-100, and 1% of the protease inhibitor cocktail (Sigma-Aldrich, Milan, Italy) and then stored at −80° C. for further western blot analysis. All the analyses were conducted on cells between the third and the sixth passage.
(§2) Proteins (20-30 μg) were separated on CriterionTGX™ gel (4-20%) and transferred on Immuno-PVDF membrane (Biorad, Milan, Italy) for 1 h. Blots were incubated with the primary antibody at 4° C. overnight. All the polyclonal antibodies for the protein of interest were purchased from Santa Cruz Biotechnology, Inc., Dallas, TX, USA. Then, blots were washed 3 times for 10 minutes with 1×TBS, 0.1% Tween® 20 and incubated for 1 h with secondary antibody (peroxidase-coupled anti rabbit in 1×TBS, 0.1% Tween®20). […] Band densitometric analysis was performed using Image Lab Software (Biorad, Milan, Italy).
(§3) The liver is a major organ responsible for most functions of cellular metabolism and a mediator between dietary and endogenous sources of energy for extrahepatic tissues. In this context, AMPK constitutes an intrahepatic energy sensor regulating physiological energy dynamics by limiting anabolism and stimulating catabolism, thus increasing ATP availability. Once activated, AMPK phosphorylates its downstream substrates to reduce ATP-consuming anabolic pathways, including cholesterol, fatty acid, and triacylglycerol synthesis, and increases ATP-generating catabolic pathways, including fatty acid oxidation and lipolysis. […]

TR-alpha = target: T1, TR-alpha (Homo sapiens, UniProt P10827); assay: LanthaScreen TR-FRET nuclear receptor coregulator assay, TR-alpha; assay type: biochemical; conditions: for EC50: Nuclear Receptor TR-alpha, coregulator peptide recruitment; for interaction with TRalpha receptor: conclusion from TR-FRET data
T1 construct: In this assay Nuclear Receptor-LBD is added to ligand test compounds; purchased Invitrogen Corporation, Life Technologies
Description: The compounds of Formula (I,II) were tested in the biological test named LANTHASCREEN TR-FRET NUCLEAR RECEPTOR COREGULATOR ASSAY (Invitrogen Corporation, Life Technologies).
In this assay Nuclear Receptor-LBD is added to ligand test compounds followed by addition of a mixture of the fluorescein-coregulator peptide and terbium anti-GST antibody.

hepatocytes = assay: Mitotic activity of hepatocytes (BrdU incorporation); assay type: in vivo, F344 rats; conditions: 3 days; for hepatocyte proliferation (mitogenic effect): i.p. injection 75 μg/100 g b.w.; for hepatocyte proliferation (BrdU incorporation): intragastric (i.g.) 50, 75 and 100 μg/100 g b.w.
Excerpt: FIG. 7. […] A. Labeling Index (L.I.) of hepatocytes from F344 rats subjected to the treatment with test compounds was expressed as number of BrdU-positive hepatocyte nuclei/100 nuclei. Results were expressed as means±S.E. of 3-5 rats per group. At least 3000 hepatocytes per liver were scored. *P<0.05; **P<0.01.
Five-week-old male F-344 rats purchased from Charles River (Milano, Italy) were maintained on a standard laboratory diet (Ditta Mucedola, Milano, Italy). The animals were given food and water ad libitum with a 12-h light/dark daily cycle and were acclimated for 1 week before the start of the experiment. All procedures were performed in accordance with the Guidelines for the Care and Use of Laboratory Animals and were approved by the Italian Ministry of Health. […] A control group received the vehicle (DMSO 5% in corn oil). Additional two groups received daily injections of either IS25 or TG68 at the dose of 75 μg/100 g b.wt. intraperitoneally for 3 days. For the measurement of hepatocyte proliferation, animals received bromodeoxyuridine (BrdU; 1 g/1 L) in drinking water during the 3-day treatment period (FIGS. 7A and B).

ACC = assay: Western blot of phosphorylated ACC in HepG2 cells; assay type: cell-based, Human; conditions: twenty-four hours of treatment
Description: as §1, §2, §3

HepG2 cells = assay: Glycerol release (lipolysis); assay type: cell-based, Human; conditions: 24 hours treatment, 1 and 10 μM
Description: Samples of the media collected from HepG2 cells used to test lipid accumulation by Oil Red O staining (as detailed above), were assayed for glycerol levels using the Glycerol Assay Kit (Cell Based-ab133130-Abcam).

T1 sequence (P10827 163-410 isoform P10827-2 limits assumed, other chains not shown): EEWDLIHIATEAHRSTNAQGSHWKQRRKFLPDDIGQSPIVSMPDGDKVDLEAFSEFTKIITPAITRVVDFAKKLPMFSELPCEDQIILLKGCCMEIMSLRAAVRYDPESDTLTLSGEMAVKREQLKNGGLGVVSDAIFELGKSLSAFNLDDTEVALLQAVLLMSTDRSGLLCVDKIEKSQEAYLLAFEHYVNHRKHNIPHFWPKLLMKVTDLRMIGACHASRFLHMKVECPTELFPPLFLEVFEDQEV

Compound | expression of p-AMPK (AMPK) | EC50 (TR-alpha) [nM] | interaction with TRalpha receptor (TR-alpha) | hepatocyte proliferation (mitogenic effect) (hepatocytes) | hepatocyte proliferation (BrdU incorporation) (hepatocytes) | ACC phosphorylation (p-ACC) (ACC) | glycerol release / lipolysis (HepG2 cells)
Cc1cc(OCC(=O)O)cc(C)c1Cc1ccc(N)c(C(C)C)c1 [IS25, 2-(4-(4-amino-3-isopropylbenzyl)-3,5-dimethylphenoxy)acetic acid] | significantly (p<0.05) increased | > 1000 | do not interact | the mitogenic effect was lost | induced a dose dependent hepatocyte proliferation | significant ACC phosphorylation | induce lipolysis
CC(=O)Nc1ccc(Cc2c(C)cc(OCC(=O)O)cc2C)cc1C(C)C [TG68, 2-(4-(4-acetamido-3-isopropylbenzyl)-3,5-dimethylphenoxy)acetic acid] | significantly (p<0.05) increased | > 1000 | do not interact | the mitogenic effect was lost | induced a dose dependent hepatocyte proliferation | significant ACC phosphorylation | induce lipolysis
